Structures are written as SMILES. Some results are limits rather than exact numbers.

One experiment has as its target T1, human DGAT2 (hDGAT2) (Homo sapiens, UniProt Q96PD7).
T1 construct: made in house; host or cells: Sf-9 insect cells (baculovirus), membrane fraction
T1 sequence (Q96PD7 1-388): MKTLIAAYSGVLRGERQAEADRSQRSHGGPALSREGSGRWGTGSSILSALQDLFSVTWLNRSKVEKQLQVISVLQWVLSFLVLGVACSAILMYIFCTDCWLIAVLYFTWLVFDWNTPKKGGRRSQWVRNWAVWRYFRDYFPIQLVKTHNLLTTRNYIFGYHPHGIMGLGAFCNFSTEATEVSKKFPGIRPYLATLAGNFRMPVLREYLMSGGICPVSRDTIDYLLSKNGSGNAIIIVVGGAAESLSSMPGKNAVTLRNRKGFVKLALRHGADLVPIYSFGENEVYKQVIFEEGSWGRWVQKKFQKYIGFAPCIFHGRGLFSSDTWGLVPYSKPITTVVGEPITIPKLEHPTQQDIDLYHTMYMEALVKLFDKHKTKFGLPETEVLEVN
The experiment in a line: DGAT2 Enzymatic Activity Assay. Type of experiment: biochemical. The settings on record: membrane prep of Sf-9 cells expressing hDGAT2; 25 μM diolein, 5 μM 13C oleoyl-CoA; 13C18-triolein by LC/MS/MS; read-out: DGAT2 IC50. A digest of the protocol: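 Membranes from Sf-9 cells expressing untagged human DGAT2 (8 ng/μL) incubated at rt in 100 mM Tris·Cl pH 7.0, 20 mM MgCl2, 5% ethanol with 25 μM diolein and 5 μM 13C oleoyl-CoA. 13C18-triolein product quantified by LC/MS/MS against 13C21-triolein internal standard; IC50 by 4-parameter fit.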
Usually IC50 stands for the concentration that inhibits the measured activity by half. As to `CC(n1c(=O)n(-c2cc(OC(F)(F)F)ccc2F)c2cc(F)c(C(=O)NC3(C)CCS(=O)(=O)CC3)cc21)C(C)(C)O` (single isomer, unassigned) [Example 70a, 6-fluoro-1-(2-fluoro-5-(trifluoromethoxy)phenyl)-3-(3-hydroxy-3-methylbutan-2-yl)-N-(4-methyl-1,1-dioxidotetrahydro-2H-thiopyran-4-yl)-2-oxo-2,3-dihydro-1H-benzo[d]imidazole-5-carboxamide], the IC50 was 1 nM.
For the molecule `CCOc1cccc(-n2c(=O)n(C(C)C)c3cc(C(=O)N[C@@]4(C)CCS(=O)(=O)C4)cnc32)c1` [Example 97, 3-(3-ethoxyphenyl)-1-isopropyl-N-[(3S)-3-methyl-1,1-dioxo-thiolan-3-yl]-2-oxo-imidazo[4,5-b]pyridine-6-carboxamide], the IC50 stood at 154 nM.
As to `CCC(C)n1c(=O)n(-c2cccc(OC(F)F)c2)c2ccc(C(=O)NC3(C)CS(=O)(=O)C3)cc21` (single isomer, unassigned) [Example 46b, 3-(sec-butyl)-1-(3-(difluoromethoxy)phenyl)-N-(3-methyl-1,1-dioxidothietan-3-yl)-2-oxo-2,3-dihydro-1H-benzo[d]imidazole-5-carboxamide], the half-inhibitory concentration (IC50) worked out at 92 nM.
Same read-out and setting: the value for `CC(n1c(=O)n(-c2cc(OCC(F)F)ncc2F)c2ccc(C(=O)NC3(C)CCS(=O)(=O)CC3)cc21)C(C)(C)O` (single isomer, unassigned) [Example 72b, 1-(2-(2,2-difluoroethoxy)-5-fluoropyridin-4-yl)-3-(3-hydroxy-3-methylbutan-2-yl)-N-(4-methyl-1,1-dioxidotetrahydro-2H-thiopyran-4-yl)-2-oxo-2,3-dihydro-1H-benzo[a]imidazole-5-carboxamide] was 6.6 nM; that for `CC(C)n1c(=O)n(-c2cccc(OC(F)F)c2)c2ccc(C(=O)N[C@H]3CCCC(F)(F)[C@@H]3O)cc21` [Example 30, N-[(1S,2R)-3,3-difluoro-2-hydroxy-cyclohexyl]-1-[3-(difluoromethoxy)phenyl]-3-isopropyl-2-oxo-benzimidazole-5-carboxamide] was 31 nM; that for `CCOc1cc(-n2c(=O)n(C(C)C(C)(C)O)c3cc(C(=O)NC4(C)CS(=O)(=O)C4)ccc32)c(F)cn1` (single isomer, unassigned) [Example 78a, 1-(2-ethoxy-5-fluoropyridin-4-yl)-3-(3-hydroxy-3-methylbutan-2-yl)-N-(3-methyl-1,1-dioxidothietan-3-yl)-2-oxo-2,3-dihydro-1H-benzo[d]imidazole-5-carboxamide] was 123 nM.
The same measure, in the same setting: then `CC(n1c(=O)n(-c2cccc(OC(F)(F)C(F)F)c2)c2ccc(C(=O)NC3(C)CCS(=O)(=O)CC3)cc21)C(C)(C)O` (single isomer, unassigned) [Example 77b, 3-(3-hydroxy-3-methylbutan-2-yl)-N-(4-methyl-1,1-dioxidotetrahydro-2H-thiopyran-4-yl)-2-oxo-1-(3-(1,1,2,2-tetrafluoroethoxy)phenyl)-2,3-dihydro-1H-benzo[d]imidazole-5-carboxamide], with 9.8 nM; and `CC(C)n1c(=O)n(-c2cc(OC(F)(F)C(F)F)ccn2)c2ccc(C(=O)NC3(C)CCS(=O)(=O)CC3)cc21` [Example 120, 3-isopropyl-N-(4-methyl-1,1-dioxidotetrahydro-2H-thiopyran-4-yl)-2-oxo-1-(4-(1,1,2,2-tetrafluoroethoxy)pyridin-2-yl)-2,3-dihydro-1H-benzo[d]imidazole-5-carboxamide], with 3.2 nM; and `Cn1c(=O)n(-c2cccc(OC(F)F)c2)c2ccc(C(=O)NC3(C)CS(=O)(=O)C3)cc21` [Example 60, 1-(3-(difluoromethoxy)phenyl)-3-methyl-N-(3-methyl-1,1-dioxidothietan-3-yl)-2-oxo-2,3-dihydro-1H-benzo[d]imidazole-5-carboxamide], with 1090 nM.
As to `CCOc1cccc(-n2c(=O)n(C(C)C)c3cc(C(=O)N[C@]4(C)CCS(=O)(=O)C4)cnc32)c1` [Example 98, 3-(3-ethoxyphenyl)-1-isopropyl-N-[(3R)-3-methyl-1,1-dioxo-thiolan-3-yl]-2-oxo-imidazo[4,5-b]pyridine-6-carboxamide], the concentration for half-maximal inhibition (IC50) was 102 nM.
On the same count and under the same terms, then `CC(C)n1c(=O)n(-c2cccc(OC(F)F)c2)c2ccc(C(=O)N[C@@H]3CCCC[C@H]3O)cc21` [Example 31, 1-[3-(difluoromethoxy)phenyl]-N-[(1R,2R)-2-hydroxycyclohexyl]-3-isopropyl-2-oxo-benzimidazole-5-carboxamide], with 106 nM; and `CNS(=O)(=O)c1cccc(-n2c(=O)n(C(C)C)c3cc(C(=O)NC4(C)CCS(=O)(=O)CC4)ccc32)c1` [Example 57, 3-isopropyl-N-(4-methyl-1,1-dioxidotetrahydro-2H-thiopyran-4-yl)-1-(3-(N-methylsulfamoyl)phenyl)-2-oxo-2,3-dihydro-1H-benzo[d]imidazole-5-carboxamide], with over 9990 nM.
On the same count and under the same terms, then `CC(C)n1c(=O)n(-c2cccc(OC(F)F)c2)c2ncc(C(=O)N[C@@]3(C)CCS(=O)(=O)C3)cc21` [Example 89, 3-[3-(difluoromethoxy)phenyl]-1-isopropyl-N-[(3S)-3-methyl-1,1-dioxo-thiolan-3-yl]-2-oxo-imidazo[4,5-b]pyridine-6-carboxamide], with 288 nM.

The same experiment, now with this note: membrane prep of Sf-9 cells expressing hDGAT2; 25 μM diolein, 5 μM 13C oleoyl-CoA; 13C18-triolein by LC/MS/MS; read-out: Human DGAT2 IC50.
In the case of `CC(C)n1c(=O)n(-c2cc(OC(F)F)ncc2F)c2cc(F)c(C(=O)NC3(C)CS(=O)(=O)C3)cc21` [Example 24, 1-(2-(Difluoromethoxy)-5-fluoropyridin-4-yl)-6-fluoro-3-isopropyl-N-(3-methyl-1,1-dioxidothietan-3-yl)-2-oxo-2,3-dihydro-1H-benzo[d]imidazole-5-carboxamide], the IC50 is 66 nM.
With `CC(C)n1c(=O)n(-c2cccc(OCC(F)F)c2)c2ccc(C(=O)NC3(C)CCS(=O)(=O)CC3)cc21` [Example 11, 1-[3-(2,2-difluoroethoxy)phenyl]-3-isopropyl-N-(4-methyl-1,1-dioxo-thian-4-yl)-2-oxo-benzimidazole-5-carboxamide], the IC50 was 15 nM.
The same measure, in the same setting: then `CC1(NC(=O)c2cnc3c(c2)n(-c2ccc(F)cc2)c(=O)n3-c2cccc(OC(F)F)c2)CS(=O)(=O)C1` [Example 4, 3-(3-(difluoromethoxy)phenyl)-1-(4-fluorophenyl)-N-(3-methyl-1,1-dioxidothietan-3-yl)-2-oxo-2,3-dihydro-1H-imidazo[4,5-b]pyridine-6-carboxamide], with 8.5 nM.
Regarding `CC(C)n1c(=O)n(-c2cncc(OC(F)F)c2)c2ccc(C(=O)NC3(C)CS(=O)(=O)C3)cc21` [Example 83, 1-(5-(Difluoromethoxy)pyridin-3-yl)-3-isopropyl-N-(3-methyl-1,1-dioxidothietan-3-yl)-2-oxo-2,3-dihydro-1H-benzo[d]imidazole-5-carboxamide], the IC50 came to 150 nM.
`CC(C(N)=O)n1c(=O)n(-c2cccc(OC(F)F)c2)c2ccc(C(=O)NC3(C)CCS(=O)(=O)CC3)cc21` (single isomer, unassigned) [EX-85b, 3-(1-amino-1-oxopropan-2-yl)-1-(3-(difluoromethoxy)phenyl)-N-(4-methyl-1,1-dioxidotetrahydro-2H-thiopyran-4-yl)-2-oxo-2,3-dihydro-1H-benzo[d]imidazole-5-carboxamide]: the IC50 was 1750 nM.
The same measure, in the same setting: then `CC(C)n1c(=O)n(-c2cncc(C3CC3)c2)c2ccc(C(=O)NC3(C)CS(=O)(=O)C3)cc21` [Example 84, 1-(5-Cyclopropylpyridin-3-yl)-3-isopropyl-N-(3-methyl-1,1-dioxidothietan-3-yl)-2-oxo-2,3-dihydro-1H-benzo[d]imidazole-5-carboxamide], with 71 nM.
In the case of `CC(C)n1c(=O)n(-c2cccc(C3CC3(F)F)c2)c2ccc(C(=O)NC3(C)CS(=O)(=O)C3)cc21` (centres unmarked) [Example 22, 1-(3-(2,2-Difluorocyclopropyl)phenyl)-3-isopropyl-N-(3-methyl-1,1-dioxidothietan-3-yl)-2-oxo-2,3-dihydro-1H-benzo[d]imidazole-5-carboxamide], the IC50 was 66 nM.
Still for that read-out and setting: then `CC1(NC(=O)c2ccc3c(c2)n(-c2ccc(F)cc2)c(=O)n3-c2cccc(OC(F)F)c2)CS(=O)(=O)C1` [Example 2, 1-(3-(difluoromethoxy)phenyl)-3-(4-fluorophenyl)-N-(3-methyl-1,1-dioxidothietan-3-yl)-2-oxo-2,3-dihydro-1H-benzo[d]imidazole-5-carboxamide], with 1.8 nM.
Regarding `CC(C)n1c(=O)n(-c2cccc(OC(F)F)c2)c2ccc(C(=O)NC3(C)CCS(=O)(=O)CC3)c(C#N)c21` [Example 129, 4-cyano-1-(3-(difluoromethoxy)phenyl)-3-isopropyl-N-(4-methyl-1,1-dioxidotetrahydro-2H-thiopyran-4-yl)-2-oxo-2,3-dihydro-1H-benzo[d]imidazole-5-carboxamide], the 50% inhibitory concentration (IC50) was found to be 248 nM.
Same read-out and setting: then `CC(C)n1c(=O)n(-c2cccc(OC(F)F)c2)c2cc(Cl)c(C(=O)NC3(C)CCS(=O)(=O)CC3)cc21` [Example 127], with 112 nM.
